These results are taken from ChEMBL document CHEMBL5214900, “Design, Synthesis, and Biological Evaluation of Membrane-Active Bakuchiol Derivatives as Effective Broad-Spectrum Antibacterial Agents” (J Med Chem, 2021).

The structures appear in SMILES notation. Values after ≈ are worked out from the molar mass of the structure shown.

Data set [1] concerns Staphylococcus aureus. The data set is described as follows: Antibacterial activity against methicillin-resistant Staphylococcus aureus N315 assessed as inhibition of bacterial growth incubated for 24 hrs by CLSI based broth dilution method. The format is functional.
In data set [2] the test system is Staphylococcus aureus. The data set is described as follows: Antibacterial activity against Staphylococcus aureus ATCC 29213 assessed as inhibition of bacterial growth incubated for 24 hrs by CLSI based broth dilution method. The format is functional. (Dilution methods test growth across graded concentrations, often in twofold steps.)
Data set [3] is described as follows: Dissociation constant, pKa of compound by potentiometric titration method. It is filed as physicochemical.
Data set [4] deals with Escherichia coli. The data set is described as follows: Antibacterial activity against Escherichia coli ATCC 25922 assessed as inhibition of bacterial growth incubated for 24 hrs by CLSI based broth dilution method. It is filed as functional.
The nature of data set [5]: Hemolytic activity in rabbit RBC measured after 1 hrs by multimode reader assay. To be noted: rabbit red blood cells (erythrocytes). It is filed as toxicity, cell-based, Oryctolagus cuniculus, Erythrocyte.
The subject of data set [6] is Staphylococcus aureus. Put plainly: Antibacterial activity against methicillin-resistant Staphylococcus aureus NCTC10442 assessed as inhibition of bacterial growth incubated for 24 hrs by CLSI based broth dilution method. The format is functional.
Data set [7] deals with Pseudomonas aeruginosa. Put plainly: Antibacterial activity against Pseudomonas aeruginosa ATCC 9027 in C57BL/6 mouse model of bacterial keratitis assessed as log reduction in number of viable bacterial colonies in infected cornea at 3 mg/ml, TOP administered 4 times a day for 3 consecutive days. The note with it: time 3 day. The format is functional.
The test system of data set [8] is Staphylococcus aureus. Put plainly: Induction of drug resistance in Staphylococcus aureus ATCC 29213 assessed as fold change in MIC measured after 19 passages by CLSI based broth dilution method. It is filed as functional.
Data set [9] concerns Staphylococcus aureus. The data set is described as follows: Antibacterial activity against Staphylococcus aureus ATCC 29213 in C57BL/6 mouse model of bacterial keratitis assessed as log reduction in number of viable bacterial colonies in infected cornea at 50 mg/ml, TOP administered 4 times a day for 3 consecutive days. It is filed as functional. The note with it: time 3 day.

Data set [10] deals with Staphylococcus aureus. The data set is described as follows: Bactericidal activity against Staphylococcus aureus ATCC 29213 assessed as log reduction in viable bacteria at 8 times MIC measured after 8 hrs by time-killing assay. The format is functional.
In data set [11] the test system is Escherichia coli. Put plainly: Induction of drug resistance in Escherichia coli ATCC 25922 assessed as fold change in MIC measured after 19 passages by CLSI based broth dilution method. The format is functional.
For data set [12], the system named is Escherichia coli. The data set is described as follows: Bactericidal activity against Escherichia coli ATCC 25922 assessed as log reduction in viable bacteria at 8 times MIC measured after 2 hrs by time-killing assay. It is filed as functional.

Consider `C=C[C@@](C)(/C=C/c1ccc(OCCCCN)cc1)CCC=C(C)C`, for which the MIC (as a rule, the least concentration at which growth counts as inhibited) was found to be 0.78 µg/mL (≈ 2.38 µM) in [1], 1.56 µg/mL (≈ 4.76 µM) in data set [2], 12.5 µg/mL (≈ 38.2 µM) in [4] and 1.56 µg/mL (≈ 4.76 µM) in data set [6]. The pKa (commonly the pH at which an ionisable group is half protonated) in [3] came to 9.54. The HC50 (in general, the concentration giving 50% haemolysis) at 1 h in data set [5] turned out to be 65.9 µg/mL.
As to `COc1c(N2CCNC(C)C2)c(F)cc2c(=O)c(C(=O)O)cn(C3CC3)c12` (configuration not stated) [GATIFLOXACIN], the “log(activity)” value in [7] amounted to 3.15.
As for `C=C[C@@](C)(/C=C/c1ccc(OCCCCN2CCSCC2)cc1)CCC=C(C)C`, the minimal inhibitory concentration (MIC) in data set [1] was more than 50 µg/mL; in [2], more than 50 µg/mL; in data set [4] it was more than 100 µg/mL; in data set [6], more than 50 µg/mL. This compound also returned a pKa in data set [3] of 8.41. In data set [5], this compound came in with an HC50 at 1 h of more than 200 µg/mL.
Consider `CCn1cc(C(=O)O)c(=O)c2cc(F)c(N3CCNCC3)cc21`, for which the fold change (FC) in data set [8] turned out to be 32.
As for `CN[C@H](CC(C)C)C(=O)N[C@H]1C(=O)N[C@@H](CC(N)=O)C(=O)N[C@H]2C(=O)N[C@H]3C(=O)N[C@H](C(=O)N[C@H](C(=O)O)c4cc(O)cc(O)c4-c4cc3ccc4O)[C@H](O)c3ccc(c(Cl)c3)Oc3cc2cc(c3O[C@@H]2O[C@H](CO)[C@@H](O)[C@H](O)[C@H]2O[C@H]2C[C@](C)(N)[C@H](O)[C@H](C)O2)Oc2ccc(cc2Cl)[C@H]1O` [VANCOMYCIN], the MIC in data set [1] came to 1.56 µg/mL (≈ 1.08 µM); in data set [2], 0.78 µg/mL (≈ 0.538 µM); in data set [6], 1.56 µg/mL (≈ 1.08 µM). Besides, the “log(activity)” value stood at 6.05 in data set [9] and 1.22 in data set [10].
Take `CC1(C)S[C@@H]2[C@H](NC(=O)[C@H](N)c3ccc(O)cc3)C(=O)N2[C@H]1C(=O)O` [AMOXICILLIN]: the fold change (FC) in [11] came out at 16. Moreover, in [12], the “log(activity)” value is 1.22.
On to `C=C[C@@](C)(/C=C/c1ccc(OCCCCNC(=N)N)cc1)CCC=C(C)C`, for which the MIC in [1] turned out to be 1.56 µg/mL (≈ 4.22 µM); in [2], 3.12 µg/mL (≈ 8.46 µM); in [4], 25 µg/mL (≈ 67.6 µM); in [6], 3.12 µg/mL (≈ 8.46 µM). In addition, the pKa in data set [3] was 11.4. In data set [5], the HC50 at 1 h is 75.7 µg/mL.
